Experimental data as given in the kinase profiling compilation of Christmann-Franck et al. (2016).

Tests used:
Experiment in all cases: radiometric filter-binding kinase assay, Kinase HotSpot
Settings in all cases: compound 0.5 µM; ATP 10 µM
ADRBK2 (human) = ADRBK2 (human) (UniProt P35626)
AXL (human) = AXL (human) (UniProt P30530)
CAMK1 (human) = CAMK1 (human) (UniProt Q14012)
CDK6 CCND1 (human) = CDK6 CCND1 (human) (UniProt Q00534+P24385)
CDK9 CCNT1 (human) = CDK9 CCNT1 (human) (UniProt P50750+O60563)
CLK4 (human) = CLK4 (human) (UniProt Q9HAZ1)
CLK4 (human), sequence (Q9HAZ1 whole entry, looked up): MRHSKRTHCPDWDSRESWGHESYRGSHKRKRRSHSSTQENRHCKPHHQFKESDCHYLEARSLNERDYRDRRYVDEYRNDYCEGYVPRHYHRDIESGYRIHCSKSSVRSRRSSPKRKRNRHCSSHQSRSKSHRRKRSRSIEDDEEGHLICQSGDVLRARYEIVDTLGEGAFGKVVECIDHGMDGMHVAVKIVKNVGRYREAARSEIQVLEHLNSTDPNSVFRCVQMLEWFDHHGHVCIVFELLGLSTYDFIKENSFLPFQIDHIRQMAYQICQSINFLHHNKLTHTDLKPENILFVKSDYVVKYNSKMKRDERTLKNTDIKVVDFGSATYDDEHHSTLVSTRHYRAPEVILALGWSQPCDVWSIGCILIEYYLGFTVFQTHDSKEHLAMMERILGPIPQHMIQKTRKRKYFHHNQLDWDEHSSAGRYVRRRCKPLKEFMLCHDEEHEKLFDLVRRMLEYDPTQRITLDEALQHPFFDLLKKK

CSNK1A1 (human) = CSNK1A1 (human) (UniProt P48729)
EPHB3 (human) = EPHB3 (human) (UniProt P54753)
FGFR4 (human) = FGFR4 (human) (UniProt P22455)
LRRK2 (human) = LRRK2 (human) (UniProt Q5S007)
LTK (human) = LTK (human) (UniProt P29376)
MAP3K10 (human) = MAP3K10 (human) (UniProt Q02779)
MAP3K10 (human), sequence (Q02779 whole entry, looked up): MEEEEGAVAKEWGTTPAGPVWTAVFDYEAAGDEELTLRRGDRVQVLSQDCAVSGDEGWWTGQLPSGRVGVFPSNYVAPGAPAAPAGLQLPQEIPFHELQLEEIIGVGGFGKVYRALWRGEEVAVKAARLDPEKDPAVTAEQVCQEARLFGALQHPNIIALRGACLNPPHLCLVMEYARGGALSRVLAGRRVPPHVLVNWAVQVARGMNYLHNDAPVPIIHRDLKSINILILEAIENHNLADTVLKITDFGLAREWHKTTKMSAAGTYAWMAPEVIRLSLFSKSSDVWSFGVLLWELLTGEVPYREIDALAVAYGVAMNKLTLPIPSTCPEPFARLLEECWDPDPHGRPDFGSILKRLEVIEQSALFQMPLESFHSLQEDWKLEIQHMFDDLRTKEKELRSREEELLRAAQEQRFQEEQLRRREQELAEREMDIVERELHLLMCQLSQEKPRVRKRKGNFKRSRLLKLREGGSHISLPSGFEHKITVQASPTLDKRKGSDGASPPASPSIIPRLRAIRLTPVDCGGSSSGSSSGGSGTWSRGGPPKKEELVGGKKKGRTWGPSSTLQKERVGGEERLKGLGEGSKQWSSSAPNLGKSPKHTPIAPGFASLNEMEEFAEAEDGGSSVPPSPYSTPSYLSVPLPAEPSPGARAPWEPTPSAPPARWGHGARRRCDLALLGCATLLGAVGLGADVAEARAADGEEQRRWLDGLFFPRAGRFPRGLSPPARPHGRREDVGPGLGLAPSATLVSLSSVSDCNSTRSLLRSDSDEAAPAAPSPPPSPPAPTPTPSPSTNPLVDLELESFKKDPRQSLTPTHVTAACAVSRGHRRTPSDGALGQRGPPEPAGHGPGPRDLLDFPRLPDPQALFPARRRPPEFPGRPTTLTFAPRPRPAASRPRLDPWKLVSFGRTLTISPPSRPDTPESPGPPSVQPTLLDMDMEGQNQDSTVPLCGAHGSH

MAP3K11 (human) = MAP3K11 (human) (UniProt Q16584)
MAPK12 (human) = MAPK12 (human) (UniProt P53778)
MAPKAPK5 (human) = MAPKAPK5 (human) (UniProt Q8IW41)
MARK2 (human) = MARK2 (human) (UniProt Q7KZI7)
MARK2 (human), sequence (Q7KZI7 whole entry, looked up): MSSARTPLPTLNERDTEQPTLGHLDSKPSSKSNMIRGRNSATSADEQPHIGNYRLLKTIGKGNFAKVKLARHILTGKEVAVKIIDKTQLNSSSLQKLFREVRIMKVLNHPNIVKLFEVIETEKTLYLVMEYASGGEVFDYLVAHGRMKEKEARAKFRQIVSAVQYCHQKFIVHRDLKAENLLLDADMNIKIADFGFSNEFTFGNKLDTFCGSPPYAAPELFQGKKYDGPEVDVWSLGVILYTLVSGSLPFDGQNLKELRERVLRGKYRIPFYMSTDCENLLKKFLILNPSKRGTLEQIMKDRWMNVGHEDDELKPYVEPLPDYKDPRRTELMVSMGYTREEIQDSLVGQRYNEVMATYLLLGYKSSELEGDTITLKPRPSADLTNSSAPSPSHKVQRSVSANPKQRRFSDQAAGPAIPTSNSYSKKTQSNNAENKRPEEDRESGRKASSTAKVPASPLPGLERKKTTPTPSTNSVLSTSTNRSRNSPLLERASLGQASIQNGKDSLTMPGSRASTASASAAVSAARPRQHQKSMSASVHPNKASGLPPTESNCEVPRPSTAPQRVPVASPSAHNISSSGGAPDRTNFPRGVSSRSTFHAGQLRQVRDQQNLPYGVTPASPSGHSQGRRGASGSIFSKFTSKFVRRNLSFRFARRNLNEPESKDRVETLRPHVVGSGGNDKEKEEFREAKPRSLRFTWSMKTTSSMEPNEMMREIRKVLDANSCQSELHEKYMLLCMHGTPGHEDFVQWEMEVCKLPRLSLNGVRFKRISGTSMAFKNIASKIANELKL

MST1R (human) = MST1R (human) (UniProt Q04912)
NEK1 (human) = NEK1 (human) (UniProt Q96PY6)
NEK1 (human), sequence (Q96PY6 whole entry, looked up): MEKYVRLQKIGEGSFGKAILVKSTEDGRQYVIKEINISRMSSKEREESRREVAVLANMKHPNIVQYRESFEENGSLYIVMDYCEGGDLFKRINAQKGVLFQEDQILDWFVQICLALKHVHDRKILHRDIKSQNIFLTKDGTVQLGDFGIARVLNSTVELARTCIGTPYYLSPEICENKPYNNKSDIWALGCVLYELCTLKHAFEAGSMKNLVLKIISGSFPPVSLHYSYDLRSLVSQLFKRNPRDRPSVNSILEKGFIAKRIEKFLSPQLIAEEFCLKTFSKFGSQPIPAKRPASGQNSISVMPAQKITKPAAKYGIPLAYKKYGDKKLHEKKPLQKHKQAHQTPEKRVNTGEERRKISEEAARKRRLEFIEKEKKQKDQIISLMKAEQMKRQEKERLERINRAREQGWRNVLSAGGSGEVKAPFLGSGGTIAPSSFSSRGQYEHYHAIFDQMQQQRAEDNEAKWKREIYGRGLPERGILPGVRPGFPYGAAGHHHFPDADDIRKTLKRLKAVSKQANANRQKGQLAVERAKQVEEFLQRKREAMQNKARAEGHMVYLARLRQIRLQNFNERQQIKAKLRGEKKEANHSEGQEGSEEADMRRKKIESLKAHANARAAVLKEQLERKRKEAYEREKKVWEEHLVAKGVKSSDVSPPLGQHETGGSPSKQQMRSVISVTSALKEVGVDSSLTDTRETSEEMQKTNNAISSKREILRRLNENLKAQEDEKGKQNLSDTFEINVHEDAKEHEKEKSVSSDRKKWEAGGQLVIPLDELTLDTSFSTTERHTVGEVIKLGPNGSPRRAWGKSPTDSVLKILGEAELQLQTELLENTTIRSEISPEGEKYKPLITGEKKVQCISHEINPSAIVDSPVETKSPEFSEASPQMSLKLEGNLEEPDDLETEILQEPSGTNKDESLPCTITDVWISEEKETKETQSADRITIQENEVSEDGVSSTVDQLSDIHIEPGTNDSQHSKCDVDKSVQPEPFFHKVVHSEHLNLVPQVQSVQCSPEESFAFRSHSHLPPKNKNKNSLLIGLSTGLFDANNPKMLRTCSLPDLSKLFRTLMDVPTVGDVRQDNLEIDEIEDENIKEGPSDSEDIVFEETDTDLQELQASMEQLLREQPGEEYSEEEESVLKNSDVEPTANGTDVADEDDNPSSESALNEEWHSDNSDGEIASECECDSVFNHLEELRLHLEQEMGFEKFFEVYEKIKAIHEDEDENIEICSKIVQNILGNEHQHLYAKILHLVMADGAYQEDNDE

NEK7 (human) = NEK7 (human) (UniProt Q8TDX7)
NEK7 (human), sequence (Q8TDX7 whole entry, looked up): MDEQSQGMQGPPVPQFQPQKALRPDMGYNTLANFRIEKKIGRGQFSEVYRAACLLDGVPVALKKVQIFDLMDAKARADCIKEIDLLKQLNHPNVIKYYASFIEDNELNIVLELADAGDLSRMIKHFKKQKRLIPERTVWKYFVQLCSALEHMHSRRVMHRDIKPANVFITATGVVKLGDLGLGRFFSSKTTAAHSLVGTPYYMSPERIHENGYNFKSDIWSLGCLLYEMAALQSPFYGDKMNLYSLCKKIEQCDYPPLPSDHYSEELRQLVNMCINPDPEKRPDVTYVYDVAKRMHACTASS

NEK9 (human) = NEK9 (human) (UniProt Q8TD19)
NTRK1 (human) = NTRK1 (human) (UniProt P04629)
PAK2 (human) = PAK2 (human) (UniProt Q13177)
PAK3 (human) = PAK3 (human) (UniProt O75914)
PAK4 (human) = PAK4 (human) (UniProt O96013)
PDPK1 (human) = PDPK1 (human) (UniProt O15530)
PLK1 (human) = PLK1 (human) (UniProt P53350)
PLK2 (human) = PLK2 (human) (UniProt Q9NYY3)
PRKCG (human) = PRKCG (human) (UniProt P05129)
PRKG2 (human) = PRKG2 (human) (UniProt Q13237)
RET (human) = RET (human) (UniProt P07949)
ROCK2 (human) = ROCK2 (human) (UniProt O75116)
RPS6KA1 KD1 KD2 (human) = RPS6KA1 KD1 KD2 (human) (UniProt Q15418)
RPS6KA3 KD1 KD2 (human) = RPS6KA3 KD1 KD2 (human) (UniProt P51812)
SIK2 (human) = SIK2 (human) (UniProt Q9H0K1)
SRMS (human) = SRMS (human) (UniProt Q9H3Y6)
STK17A (human) = STK17A (human) (UniProt Q9UEE5)
STK24 (human) = STK24 (human) (UniProt Q9Y6E0)
STK25 (human) = STK25 (human) (UniProt O00506)
TAOK1 (human) = TAOK1 (human) (UniProt Q7L7X3)
WEE1 (human) = WEE1 (human) (UniProt P30291)
ZAP70 (human) = ZAP70 (human) (UniProt P43403)
GRK6 (human) = GRK6 (human) (UniProt P43250)

CAMK1 (human), sequence (Q14012 whole entry, looked up): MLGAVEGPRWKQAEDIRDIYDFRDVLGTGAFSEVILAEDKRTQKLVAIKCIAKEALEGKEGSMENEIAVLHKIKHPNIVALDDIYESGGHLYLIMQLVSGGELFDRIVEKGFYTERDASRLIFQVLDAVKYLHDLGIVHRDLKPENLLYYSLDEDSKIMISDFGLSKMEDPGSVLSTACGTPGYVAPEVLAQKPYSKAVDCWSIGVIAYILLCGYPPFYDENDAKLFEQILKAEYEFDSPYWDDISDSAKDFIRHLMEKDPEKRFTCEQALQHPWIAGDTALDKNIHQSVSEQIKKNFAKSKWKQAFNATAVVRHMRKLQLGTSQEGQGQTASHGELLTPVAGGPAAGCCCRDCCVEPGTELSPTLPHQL
ADRBK2 (human), sequence (P35626 whole entry, looked up): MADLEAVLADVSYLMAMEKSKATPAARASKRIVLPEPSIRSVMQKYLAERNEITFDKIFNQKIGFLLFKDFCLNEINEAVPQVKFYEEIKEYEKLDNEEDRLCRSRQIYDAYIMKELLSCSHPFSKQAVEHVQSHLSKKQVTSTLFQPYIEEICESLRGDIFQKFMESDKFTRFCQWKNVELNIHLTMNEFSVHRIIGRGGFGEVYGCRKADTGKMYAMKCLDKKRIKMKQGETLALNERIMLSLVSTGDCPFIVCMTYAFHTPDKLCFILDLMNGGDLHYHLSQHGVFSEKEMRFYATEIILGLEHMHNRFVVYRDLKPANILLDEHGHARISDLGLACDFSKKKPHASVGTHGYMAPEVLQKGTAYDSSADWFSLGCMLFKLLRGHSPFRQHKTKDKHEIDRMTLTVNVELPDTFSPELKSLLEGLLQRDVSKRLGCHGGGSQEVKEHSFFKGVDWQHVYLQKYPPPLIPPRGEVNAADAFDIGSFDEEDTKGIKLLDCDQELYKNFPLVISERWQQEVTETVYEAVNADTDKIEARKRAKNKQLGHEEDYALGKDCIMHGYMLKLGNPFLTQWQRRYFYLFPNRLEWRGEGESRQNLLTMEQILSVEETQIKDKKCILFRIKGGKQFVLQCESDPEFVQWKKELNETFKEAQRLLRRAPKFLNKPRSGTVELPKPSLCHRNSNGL

Compound: CCc1nc(-c2ccc(OC)cc2)[nH]c1-c1ccncc1
- residual activity (ADRBK2 (human)): 98.4%
- residual activity (AXL (human)): 99.9%
- residual activity (CAMK1 (human)): 108%
- residual activity (CDK6 CCND1 (human)): 101%
- residual activity (CDK9 CCNT1 (human)): 88.5%
- residual activity (CLK4 (human)): 99.3%
- residual activity (CSNK1A1 (human)): 99.4%
- residual activity (EPHB3 (human)): 107%
- residual activity (FGFR4 (human)): 95.9%
- residual activity (LRRK2 (human)): 96.7%
- residual activity (LTK (human)): 106%
- residual activity (MAP3K10 (human)): 102%
- residual activity (MAP3K11 (human)): 96.7%
- residual activity (MAPK12 (human)): 104%
- residual activity (MAPKAPK5 (human)): 95.2%
- residual activity (MARK2 (human)): 99.4%
- residual activity (MST1R (human)): 101%
- residual activity (NEK1 (human)): 98.9%
- residual activity (NEK7 (human)): 99.8%
- residual activity (NEK9 (human)): 101%
- residual activity (NTRK1 (human)): 106%
- residual activity (PAK2 (human)): 90.7%
- residual activity (PAK3 (human)): 103%
- residual activity (PAK4 (human)): 118%
- residual activity (PDPK1 (human)): 96%
- residual activity (PLK1 (human)): 103%
- residual activity (PLK2 (human)): 101%
- residual activity (PRKCG (human)): 95.5%
- residual activity (PRKG2 (human)): 91.9%
- residual activity (RET (human)): 99.2%
- residual activity (ROCK2 (human)): 101%
- residual activity (RPS6KA1 KD1 KD2 (human)): 106%
- residual activity (RPS6KA3 KD1 KD2 (human)): 98.7%
- residual activity (SIK2 (human)): 88.3%
- residual activity (SRMS (human)): 106%
- residual activity (STK17A (human)): 96.1%
- residual activity (STK24 (human)): 93.2%
- residual activity (STK25 (human)): 116%
- residual activity (TAOK1 (human)): 104%
- residual activity (WEE1 (human)): 89.1%
- residual activity (ZAP70 (human)): 101%

Compound: c1ccc(-c2cnc(Nc3ccc(OCCN4CCCC4)cc3)s2)cc1
- residual activity (ADRBK2 (human)): 103%
- residual activity (AXL (human)): 97.1%
- residual activity (CAMK1 (human)): 86.3%
- residual activity (CDK6 CCND1 (human)): 40.3%
- residual activity (CDK9 CCNT1 (human)): 66.1%
- residual activity (CLK4 (human)): 97.9%
- residual activity (CSNK1A1 (human)): 86.7%
- residual activity (EPHB3 (human)): 93.3%
- residual activity (FGFR4 (human)): 95.6%
- residual activity (GRK6 (human)): 96.1%
- residual activity (LRRK2 (human)): 95.8%
- residual activity (LTK (human)): 93.8%
- residual activity (MAP3K10 (human)): 95.7%
- residual activity (MAP3K11 (human)): 84.4%
- residual activity (MAPK12 (human)): 93.6%
- residual activity (MAPKAPK5 (human)): 83.4%
- residual activity (MARK2 (human)): 88%
- residual activity (MST1R (human)): 107%
- residual activity (NEK1 (human)): 94.2%
- residual activity (NEK7 (human)): 100%
- residual activity (NEK9 (human)): 101%
- residual activity (NTRK1 (human)): 54.1%
- residual activity (PAK2 (human)): 94.8%
- residual activity (PAK3 (human)): 99.1%
- residual activity (PAK4 (human)): 106%
- residual activity (PDPK1 (human)): 84.9%
- residual activity (PLK1 (human)): 101%
- residual activity (PLK2 (human)): 105%
- residual activity (PRKCG (human)): 92.5%
- residual activity (PRKG2 (human)): 106%
- residual activity (RET (human)): 84.2%
- residual activity (ROCK2 (human)): 91.7%
- residual activity (RPS6KA1 KD1 KD2 (human)): 78%
- residual activity (RPS6KA3 KD1 KD2 (human)): 92.2%
- residual activity (SIK2 (human)): 45.6%
- residual activity (SRMS (human)): 96.5%
- residual activity (STK17A (human)): 66.2%
- residual activity (STK24 (human)): 99.6%
- residual activity (STK25 (human)): 95.5%
- residual activity (WEE1 (human)): 92%
- residual activity (ZAP70 (human)): 105%

Compound: N#C/C(=C1/Nc2ccccc2S1)c1ccnc(NCCc2cccnc2)n1
- residual activity (ADRBK2 (human)): 99.1%
- residual activity (AXL (human)): 106%
- residual activity (CAMK1 (human)): 101%
- residual activity (CDK6 CCND1 (human)): 89.7%
- residual activity (CDK9 CCNT1 (human)): 23.3%
- residual activity (CLK4 (human)): 43.8%
- residual activity (CSNK1A1 (human)): 80%
- residual activity (EPHB3 (human)): 91%
- residual activity (FGFR4 (human)): 101%
- residual activity (GRK6 (human)): 87.6%
- residual activity (LRRK2 (human)): 83.4%
- residual activity (LTK (human)): 83.1%
- residual activity (MAP3K10 (human)): 79.6%
- residual activity (MAP3K11 (human)): 72.2%
- residual activity (MAPK12 (human)): 96.7%
- residual activity (MAPKAPK5 (human)): 98.3%
- residual activity (MARK2 (human)): 97.9%
- residual activity (MST1R (human)): 93.5%
- residual activity (NEK1 (human)): 70%
- residual activity (NEK7 (human)): 88.2%
- residual activity (NEK9 (human)): 94.4%
- residual activity (NTRK1 (human)): 106%
- residual activity (PAK2 (human)): 103%
- residual activity (PAK3 (human)): 102%
- residual activity (PAK4 (human)): 91.3%
- residual activity (PDPK1 (human)): 95.9%
- residual activity (PLK1 (human)): 91.4%
- residual activity (PLK2 (human)): 95.8%
- residual activity (PRKCG (human)): 92.2%
- residual activity (PRKG2 (human)): 98.1%
- residual activity (RET (human)): 70.1%
- residual activity (ROCK2 (human)): 83.6%
- residual activity (RPS6KA1 KD1 KD2 (human)): 79%
- residual activity (SIK2 (human)): 96.4%
- residual activity (SRMS (human)): 106%
- residual activity (STK17A (human)): 94%
- residual activity (STK24 (human)): 95.6%
- residual activity (STK25 (human)): 97.7%
- residual activity (TAOK1 (human)): 98%
- residual activity (WEE1 (human)): 88.5%
- residual activity (ZAP70 (human)): 94.5%
